Assay [1] deals with experimental autoimmune encephalomyelitis. As to conditions: murine EAE models; cited from earlier work.
The test system of another assay is IL-1α. The assay can be described thus: Serum cytokine analysis, multiplex ELISA. The format is in vivo, mouse. As to conditions: serum collected weekly; compared to Injury and mGRPs groups. The procedure: (§1) Samples were collected every week, starting from day of graft transplantation (day 0), 100 μl of blood from mouse tail. Blood was stored 1 h in room temperature, and overnight in +4° C. Serum was gently aspirated, and centrifuged 10 min with 2000 RPM to separate blood morphotic bodies. Purified serum was stored in −80° C. until further analysis. Multiplex ELISA 23-cytokine kit (M60009RDPD) was obtained from Bio-Rad (Bio-Plex Pro Mouse Cytokine 23-plex Assay #M60009RDPD, Hercules, Bio-Rad, CA, USA, RRID: AB_2857368) and performed according to instructions. 50 μl of diluted in sample diluent, 1:4 serum samples and diluted at range 1:10-1:20. Measurement standards were used, diluted 9 times according to the protocol and added at template plate. Vortexed beads were added to the assay 96-well plate. Plate was again washed 3 times with wash buffer, then from template plate, 50 μl of samples, standards and blank were transferred to measurement plate with multichannel pipette. Plate was sealed with tape and incubated 30 min. After this time, plate was washed 3 times. 25 μl of detection antibody was added to the wells with multichannel pipette. Plate was sealed and incubated for 30 min. and next washed 3 times using wash buffer. […] Beads were resuspended with 125 μl of assay buffer and analysis was performed with Bio Plex 200 reader.
(§2) All quantifications were performed including the manual cell counts in a blinded manner. The NeuN and Ibal were counted as positive cells in the ROI (see above) as previously reported. The number of cells was determined by unbiased counting of positive cells. […] Differences between groups were analyzed using a repeated measure ANOVA model with a fixed effect for the group, of the time and a random intercept for the mouse. In a second, more explorative, approach for each group the time when the physical activity was first measured below a certain threshold was determined. […] The clinically relevant threshold was determined according to previous observations and defined as value 0.9 for the Wire Test. […] The statistical significance at p<0.05 was then determined.
For orientation: An ELISA detects its analyte on a solid surface through an enzyme-linked reagent.

In another assay the test system is IL-12. Description: Serum cytokine analysis, multiplex ELISA. The class given is in vivo, mouse. As to conditions: serum collected weekly; compared to other groups. The procedure:
as §1, §2

Assay [2] has as its system transgenic SOD1^G93A mice. The assay can be described thus: Survival of ALS mice (Kaplan-Meier) after mGRPs transplantation with immunomodulatory drugs. The format is in vivo, mouse. Conditions: n=6 per group, mGRPs into cisterna magna, drug groups all with mGRPs: sPIF 1 mg/kg day -1 to 14, Tac 1 mg/kg daily to day 56, CB 25 mg/kg days 0, 2, 4, 6. From the text:
B6.Cg-Tg (SOD1^G93A) 1Gur/J (Animalab, The Jackson Laboratory, Bar Harbor, ME, USA, RRID: IMSR JAX:004435) and SCID (Animalab, Charles River Laboratory, Wilmington, MA, USA, RRID: IMSR_JAX:001303) mice were obtained from JaxMice. SOD1^G93A animals were divided randomly into 5 groups and SCID animals were used as control.
mGRP cells were received as a gift from the Department of Radiology and Radiological Science, Johns Hopkins School of Medicine (Baltimore, MD, USA). Cells were isolated as previously described from spinal cords dissected from Luc+/PLP/GFP+ mice between E12.5 and E14 stage. […] The viability of the mGRPs was assessed with trypan blue exclusion and only suspensions with over 70% of cell viability were used for transplantation. […]
All quantifications were performed including the manual cell counts in a blinded manner. The NeuN and Ibal were counted as positive cells in the ROI (see above) as previously reported. The number of cells was determined by unbiased counting of positive cells. […] Differences between groups were analyzed using a repeated measure ANOVA model with a fixed effect for the group, of the time and a random intercept for the mouse. In a second, more explorative, approach for each group the time when the physical activity was first measured below a certain threshold was determined. […]

Here are results for one sequence from US20250170212A1, “COMPOSITIONS AND METHODS OF TREATING AMYOTROPHIC LATERAL SCLEROSIS (ALS) AND RELATED DISORDERS” (BIOINCEPT, LLC, priority 2022, published 2025).

Entries after “also recorded” stand apart in the source; their conditions may differ.

For the sequence MVRIKPGSANKPSDD [sPIF], in assay [1], the paralysis and myelination result was “reverse and prevent paralysis and restore myelination”. The “peripheral IL-1α cytokine peak” value in the assay on IL-1α is recorded as “decreased IL-1α peak significantly”. The “peripheral IL-12 cytokine level” value in the assay on IL-12 is recorded as “plateaued at day 28”. The “mice survival (Kaplan-Meier)” value in assay [2] is listed as “seemed to be superior compared to other immune modulatory drugs; also recorded: seems superior but did not reach statistical significance”.
